Values joined by “and” are separate entries in the source; they are usually repeats but may differ in a detail not shown here. Identical values can stand only once.
Target: T1, SMN (Homo sapiens, UniProt Q16637)
T1 construct: endogenous in cells; host or cells: U2OS
Assay: AP-MS chemical proteomics, SMN
Format: binding
Procedure: The samples for AP-MS were prepared following pulldown procedure as previously described with minor modifications. Briefly, U2OS cells were lysed in RIPA buffer and the cell lysate was equally divided into two groups: (1) DMSO group (control group): the cell lysate was incubated with 20 μM biotin-labeled compound 1; (2) Cpmd 1 group (sample group): the cell lysate was incubated with 20 μM biotin-labeled compound 1 and 200 μM free compound 1. Each group contains three biological replicates. They were incubated overnight at 4 °C, then 30 μL streptavidin beads (Thermo Fisher, 20353) was added and incubated at 4 °C for 1 h. The beads were then washed with RIPA buffer for 3 times, 10 min/time.
Beads were rinsed twice with 50 mM TEAB, pH 7.55, before eluting proteins with 25 μL of 5% SDS, 50 mM TEAB, pH 7.55. The sample was then centrifuged at 17,000 × g for 10 min to remove any debris. Proteins were reduced with 20 mM TCEP (Thermo Fisher, 77720) and incubated at 65 °C for 30 min. […]
Samples were analyzed by nanoLC-MS/MS (nanoRSLC, Thermo Fisher) using an Aurora series (Ion Opticks) reversed phase HPLC column (25 cm length × 75 µm inner diameter) and directly injected to an Orbitrap Eclipse (Thermo Fisher) using a 120 min gradient (mobile phase A = 0.1% formic acid, mobile phase B = 99.9% acetonitrile with 0.1% formic acid; hold 2% B for 5 min, 2–6% B in 0.1 min, 6–25% in 100 min, 25–50% in 15 min) at a flow rate of 350 nL/min. Eluted peptide ions were analyzed using a data-dependent acquisition (DDA) method with resolution settings of 120,000 and 15,000 (at m/z 200) for MS1 and MS2 scans, respectively. […]
The data of AP-MS were analyzed as a previously described method with minor modifications. […] Relative protein quantification was based on the label-free quantification incorporated in the MaxQuant software. […] The missing iBAQ intensity was replaced by a random number, which was calculated from a normal distribution with a width of 0.3 and a downshift of 1.8 defined by Perseus software (version 1.6.5.0). The P-value was calculated by performing two-sample Student’s t-test. […]

T1 sequence (Q16637 whole entry): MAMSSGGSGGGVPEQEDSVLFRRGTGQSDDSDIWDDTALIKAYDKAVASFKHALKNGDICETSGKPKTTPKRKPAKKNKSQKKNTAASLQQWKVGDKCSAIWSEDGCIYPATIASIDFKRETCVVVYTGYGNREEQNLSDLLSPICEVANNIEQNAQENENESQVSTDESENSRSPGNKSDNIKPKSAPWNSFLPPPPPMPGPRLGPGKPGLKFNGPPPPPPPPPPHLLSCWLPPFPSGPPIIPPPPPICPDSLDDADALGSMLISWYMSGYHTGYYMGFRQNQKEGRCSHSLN

Structure (SMILES): Cn1c2c(c(=N)c3c1CCC3)CCC2 [Compound 1, 4-methyl-2,3,4,5,6,7-hexahydrodicyclopenta[b,e]pyridin-8(1H)-imine]
- Difference (GN=SMN1/SMN2 (Q16637), Cmpd minus DMSO, -LOG(P-value) 4.49648): -8.914
- iBAQ Cmpd (GN=SMN1/SMN2 (Q16637), replicates 1-3): 15.271 and 13.8686 and 14.4098
- log2 FC (Cmpd 1/DMSO), SMN (biotin-Cmpd 1 pulldown, competition with 200 μM compound 1 relative to DMSO, U2OS lysate): −8.9
